Data as given in patent US6733777B2, “Cationic reagents of transfection” (Qiagen GmbH, priority 1996, dated 2004).
Where “and” joins values, the source holds several entries; their conditions need not be identical. Equal values may be shown once. Read-outs that look alike come from different tables or passages of the source.

How the values were obtained:
Huh7 cells [1] = conditions: liposome with DOPE, 0.5 μg pCMVβ
Experimental: (§1) Without sonication, liposomes were prepared at 60° C. by combining DOPE with one of the following:
(§2) The resulting liposomes were used to transfect HeLaS3 and Huh7 cells in vitro with the reporter plasmid pCMVβ (Clontech). Transfection efficiency values, obtained by taking OD measurements after cell-lysis and β-Gal activity assay, were compared to efficiencies obtained in parallel with a commercially available liposome-preparation (Lipofectamine, Gibco LTI) and given as percentage of Lipofectamine efficiency. In each transfection, 0.5 μg of pCMVβ (isolated with EndoFree, QIAGEN) was used per well of a 96 well plate. The DNA was diluted to 50 μl with DMEM medium (Gibco LTI) and combined with 1, 2, 3 and 4 μl of the liposome preparations subsequently diluted to 50 μl with DMEM medium. DNA and liposome solutions were mixed and applied to the cells for 6 hours at 37° C., 5% CO2. Afterwards, medium was changed to DMEM containing 10% fetal calf serum. Cells were lysed after 48 h incubation at 37° C., 5% CO2.
(§3) Twofold determinations each were performed. The values were averaged and the highest efficiency (optimum) within a row was given as percentage value of the highest efficiency (optimum) obtained with Lipofectamine.

HeLaS3 cells [2] = conditions: liposome with DOPE, 0.5 μg pCMVβ
Experimental: as §1, §2, §3

HeLaS3 cells [3] = test: Transfection of HeLaS3 cells with pCMVβ, β-Gal activity assay (variation of counter ion); type: cell-based; conditions: 10-2-10 cytofectin with the given counter ion, liposome with DOPE, 0.5 μg pCMVβ
Experimental: Liposomes were used to transfect HeLaS3 cells in vitro with the reporter plasmid pCMVβ (Clontech). […] Cells were incubated for 48 hours at 37° C., 5% CO2 and then lysed.
In similar studies in HeLaS3 cells, the same vector was transfected with liposomes comprising bromide counter ions and the cytofectin, 10-2-10 Ethandiyl-1,2-bis(decyl dimethylammonium).

Huh7 cells [4] = tested on: Huh7 cells
Experimental: The resulting liposomes were used to transfect Huh7 cells in vitro with the reporter plasmid pCMVβ (Clontech). Transfection efficiencies, as obtained by OD measurements after cell-lysis and β-Gal activity assay, were compared to efficiencies obtained in parallel with a commercially available liposome-preparation (Lipofectamine, Gibco LTI) and given as percentage of Lipofectamine efficiency. For each transfection, 0.5 μg of pCMVβ (isolated with EndoFree, QIAGEN) was used per well of a 96 well plate. The DNA was diluted to 50 μl with DMEM medium (Gibco LTI) and combined with 1, 2, 3 and 4 μl of the liposome preparations subsequently diluted to 50 μl with DMEM medium. DNA and liposome solutions were mixed and applied to the cells for 6 hours at 37° C., 5% CO2. Afterwards, medium was changed to DMEM containing 10% fetal calf serum. Cells were lysed after 48 h incubation at 37° C., 5% CO2. Twofold determinations each were performed. The values were averaged and the highest efficiency (optimum) within a row was given as percentage value of the highest efficiency (optimum) obtained with Lipofectamine.

[5] = X(DOPE) 0.50, without sonication
[6] = X(DOPE) 0.60, without sonication
[7] = X(DOPE) 0.70, without sonication
[8] = X(DOPE) 0.80, without sonication

| Compound | Results (%) Huh7 (transfection efficiency as percentage of Lipofectamine efficiency) (Huh7 cells [1]; [5]) [%] | Results (%) Huh7 (transfection efficiency as percentage of Lipofectamine efficiency) (Huh7 cells [1]; [6]) [%] | Results (%) Huh7 (transfection efficiency as percentage of Lipofectamine efficiency) (Huh7 cells [1]; [7]) [%] | Results (%) Huh7 (transfection efficiency as percentage of Lipofectamine efficiency) (Huh7 cells [1]; [8]) [%] | Results (%) HeLaS3 (transfection efficiency as percentage of Lipofectamine efficiency) (HeLaS3 cells [2]; [5]) [%] | Results (%) HeLaS3 (transfection efficiency as percentage of Lipofectamine efficiency) (HeLaS3 cells [2]; [6]) [%] | Results (%) HeLaS3 (transfection efficiency as percentage of Lipofectamine efficiency) (HeLaS3 cells [2]; [7]) [%] | Results (%) HeLaS3 (transfection efficiency as percentage of Lipofectamine efficiency) (HeLaS3 cells [2]; [8]) [%] | Results (%) (optimal transfection efficiency as percentage of the highest efficiency obtained by Lipofectamine) (HeLaS3 cells [3]; [5]) | Results (%) (optimal transfection efficiency as percentage of the highest efficiency obtained by Lipofectamine) (HeLaS3 cells [3]; [6]) | Results (%) (optimal transfection efficiency as percentage of the highest efficiency obtained by Lipofectamine) (HeLaS3 cells [3]; [7]) | Results (%) (optimal transfection efficiency as percentage of the highest efficiency obtained by Lipofectamine) (HeLaS3 cells [3]; [8]) | Result (%) (transfection efficiency as percentage of Lipofectamine efficiency) (Huh7 cells [4]) | Result (%) (transfection efficiency as percentage of Lipofectamine efficiency) (Huh7 cells [4]; Huh7, liposome with DOPE, X(DOPE) 0.50, without sonication, 0.5 μg pCMVβ) | Result (%) (transfection efficiency as percentage of Lipofectamine efficiency) (Huh7 cells [4]; Huh7, liposome with DOPE, X(DOPE) 0.60, without sonication, 0.5 μg pCMVβ) |
| --- | --- | --- | --- | --- | --- | --- | --- | --- | --- | --- | --- | --- | --- | --- | --- |
| Butanediyl-1,4-bis(decyl dimethyl-ammonium bromide) [10-4-10] | 76 | 62 | 54 | 34 | 200 | 257 | 200 | 123 | – | – | – | – | – | – | – |
| Br [10-2-10, Ethanediyl-1,2-bis(decyldimethylammonium bromide)] | 142 | 127 | 111 | 115 | 216 | 286 | 165 | 178 | 216 | 286 | 165 | 178 | 111% and 115% | 142 | 127 |
